Tests used:
Type in all cases: cell-based
[1] = system: C. gattii; assay: Fungicidal spot assay on compound-free YPD plates; conditions: 37°C exposure
Method: (§1) Fig 4 4456dh inhibits the growth of Candida and Cryptococcus species. Two-fold dose response assays were performed against (A) C. albicans at 42°C and C. auris at 39°C, (B) C. glabrata at 42°C, and (C) C. neoformans, C. deneoformans, and C. gattii at 37°C. 4456dh was administered at the concentrations indicated. Cultures were grown in YPD at the listed temperatures for 48 hours for Candida species and 72 hours for Cryptococcus species. Experimental temperatures reflect the temperatures at which the fungi experience heat stress. Left: relative growth of treated samples was calculated by averaging technical triplicates and normalizing the OD600 of each treated well to the average OD600 of the untreated WT controls, after the absorbance due to the compound was subtracted. The MIC80 values, calculated based on the OD600 values, are indicated in the white text on each heat map. Right: representative spot assays show the ability of cells to grow after exposure to 4456dh and indicate fungicidal activity of 4456dh. TEXT PRINTED IN THE PICTURE: (A) 4456dh: C. albicans 42 °C: 13 mM; C. auris 39 °C: 7 mM | (B) 4456dh: C. glabrata 42 °C: 7.8 μM | (C) 4456dh: C. neoformans 37 °C: 7 mM; C. deneoformans 37 °C: 3 mM; C. gattii 37 °C: 7 mM DOUBTS OF THE COPYIST ABOUT THIS PICTURE: 4456dh, all panels: the picture prints no measure name with the white values on the heat maps, so each value is given only with its organism and temperature
(§2) We next tested the activity of 4456dh on Cryptococcus species at 37°C.
(§3) 123 hours. […]
(§4) 126 medium. Growth was plotted as a heat map using Excel.
(§5) 127 Wild-t y pe C. neoformans strains H99, wild-type C. deneoformans JEC21 and wild- t y pe C. gattii
(§6) 128 R265 were cultured overnight in YPD (yeast-peptone- dextrose) medium at 30 °C. Growth of the
(§7) 129 overnight cultures was quantified by measuring the OD600 and corrected for the background
(§8) 130 absorbance of the medium. Antifungal potency for 4456dh was assessed by minimum inhibitory
(§9) 131 concentration (MIC) dose-response assays performed under standard Clinical and Lab Standards
(§10) 132 Institute (CLSI) conditions. A volume of 125 µL from each cell suspension was dispensed into the
(§11) 133 wells of 96-well flat-bottom microtiter plates (Corning). An additional 25 µL of 4456dh from a series
(§12) 134 of dilutions from the 157 mM stock solution prepared in water was added to each well. Following […]
(§13) 137 replicates. Growth, as determined by a reading of absorbance at 600 nm, was normalized to
(§14) 138 untreated controls and was corrected for the absorbance of 4456dh in the YPD medium. […]
(§15) 139 minimum inhibitory concentration causing 80% growth reduction, or MIC80, was determined based […]
(§16) 157 Optical density (OD600) was determined with an Infinite PRO plate reader ( Tecan). […]

[2] = system: C. deneoformans; assay: Fungicidal spot assay on compound-free YPD plates
Method: as §1, §2, §3, §4, §5, §6, §7, §8, §9, §10, §11, §12, §13, §14, §15, §16

[3] = system: C. neoformans; assay: Fungicidal spot assay on compound-free YPD plates; conditions: 37°C exposure
Method: as §1, §2, §3, §4, §5, §6, §7, §8, §9, §10, §11, §12, §13, §14, §15, §16

[4] = system: C. deneoformans; assay: Zone of inhibition assay
Method: To test this hypothesis, we performed zone of inhibition studies in the C. deneoformans background (Fig. S8A).
123 hours. All dose- response assays were performed in biological triplicate with a minimum of three
124 technical replicates. Growth, as determined by a reading of absorbance at 600 nm, was
125 normalized to untreated controls and was corrected for the absorbance of 4456dh in the YPD
as §4, §5, §6, §7, §8
131 concentration (MIC) dose-response assays performed under standard Clinical and Lab Standards […]
as §13, §14, §15
149 mM 4456dh. The OD600 was determined followed by dilution of overnight cultures to an equivalent […]
as §16

[5] = system: C. gattii (R265); assay: MIC dose-response assay in YPD; conditions: Cryptococcus gattii
Method: as §1, §2, §3, §4, §5, §6, §7, §8, §9, §10, §11, §12, §13, §14, §15, §16

[6] = system: C. neoformans (H99); assay: MIC dose-response assay in YPD; conditions: Cryptococcus neoformans
Method: as §1, §2, §3, §4, §5, §6, §7, §8, §9, §10, §11, §12, §13, §14, §15, §16

[7] = Supplemental Table 5, This publication

Cn1cc(-c2csc(NC(=O)Cc3ccccn3)n2)cn1 [Compound 4456dh]
fungicidal activity [1]: Fungicidal activity of 4456dh was also detected | fungicidal activity ([2]; 30°C, 13 mM 4456dh): displayed fungicidal activity | fungicidal activity ([2]; 37°C exposure): Fungicidal activity of 4456dh was also detected | fungicidal activity [3]: Fungicidal activity of 4456dh was also detected | zone of inhibition ([4]; C. deneoformans tps1Δ cells, 30°C): diffuse yet visible zone of inhibition | zone of inhibition ([4]; C. deneoformans wild-type (JEC21, JEC20), 37°C): distinct zone of inhibition | MIC80 ([5]; 37°C, YPD, 72 hours): 7 mM | MIC80 [5, 7]: 2780 µg/mL | MIC80 ([6]; 37°C, YPD, 72 hours): 7 mM | MIC80 [6, 7]: 2780 µg/mL

From paper PMC12505902, “Inhibitors of trehalose-6-phosphate synthase activity in fungal pathogens compromise thermal tolerance pathways” (mBio, 2025)
